Our source for the Ki, Activity and Kis values is ChEMBL document CHEMBL1132878, “Phosphonamidate and phosphothioate dipeptides as potential inhibitors of VanX” (Bioorg Med Chem Lett, 2000).

A short description of experiment [1]: Compound was evaluated for inhibition of Van X at pH 7.0.
Experiment [2] deals with Stenotrophomonas maltophilia. Briefly: Tested for inhibitory activity against metallo-beta-lactamase L1 from Stenotrophomonas maltophilia at compound concentration up to […] at pH 7.0 using nitrocefin as substrate; No inhibition. The experiment is classed as functional.
A short description of experiment [3]: Compound was evaluated for inhibition of Van X.
A short description of experiment [4]: Compound was evaluated for inhibition of Van X at pH 7.0; No inhibition.

Molecules are shown by their SMILES. Calls of active or inactive are those of the source. The calls are words filed in the database; no cut-off is given here.

Consider `CC(OP(=O)(O)C(C)N)C(=O)O` (configuration not stated), for which affinity in experiment [1] was put at a Ki of 400 µM. Moreover, in experiment [2], the outcome was inactive. Compound `CC(C[PH](=O)C(C)N)C(=O)O` (configuration not stated) showed a Kis in experiment [3] of 0.32 µM.

For the compound `CC(N)P(=O)(O)SCC(=O)O` (configuration not stated), in experiment [4], the Ki entry is reported as “Not Active”. In addition, the outcome in experiment [2] was inactive. `CC(NP(=O)(O)C(C)N)C(=O)O` (configuration not stated): the inhibition constant (Ki) in experiment [1] stood at 36 µM. For the same compound, the outcome in experiment [2] was inactive.

By Ki is commonly meant a measure of affinity in units of concentration, obtained from inhibition or displacement. A high value points to a looser hold on the target.
